Literature values as cited in patent publication US10188628B1, “Release composition for derivatives of Cannabaceae” (priority 2016, dated 2019).

Legend:
[1] = after oral administration
[2] = not given; remark: listed apart in the source

## CCCCCc1cc(O)c2c(c1)OC(C)(C)[C@@H]1CCC(C)=C[C@@H]21 [Dronabinol, Δ^9-tetrahydrocannabinol]
After a single oral dose
  absorbed: 90-95%
Oral dosing of 20 mg in a sesame oil formulation
  maximal plasma levels: around 10 ng/ml
oral, first pass hepatic metabolism and high lipid solubility
  administered dose reaching systemic circulation: 10-20%
[1]
  appetite stimulant effect may continue: ≥ 24 h
  duration of action for psychoactive effects: 4 to 6 h
  onset of action: 0.5 to 1 h
  peak effect: 2 to 4 h
[2]; heat, light
  stability to storage and stress conditions: thermolabile and photolabile
[2]; low aqueous solubility and high permeability
  biopharmaceutical classification system (BCS) class: Class II
